The numbers were not newly measured in patent publication US12371983B2, “Large-scale carbon-mineralization through oxalatization” (THE CURATORS OF THE UNIVERSITY OF MISSOURI, priority 2021, dated 2025), which cites them from elsewhere.

For this series the following is noted: at 20° C. and one atmospheric pressure.

Molecules are shown by their SMILES. Converted amounts (≈) assume the structure as drawn.

`O=C=O` [CO2]: the solubility in water was about 1800 µg/mL (≈ 40.9 mM).
